The record followed here is PubChem BioAssay (NCI).

Among the test systems are NCI-H460 lung; SK-MEL-2 melanoma; A498 renal; K-562 leukemia; HT29 colon; COLO 205 colon; RXF 393 renal; HL-60(TB) leukemia; IGROV1 ovarian; HCC-2998 colon; M14 melanoma; SNB-19 CNS; UO-31 renal; BT-549 breast; DU-145 prostate; MDA-MB-435; PC-3 prostate; SK-MEL-28 melanoma; SF-268 CNS.
Holding throughout (assay): inhibition of tumour cell growth, NCI panel, 48 h

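Each compound was tested at five concentrations against cells in 96-well plates for 48 hours. TGI is the concentration that stops growth completely.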

With `COc1ccc(/C=C2\C(=O)N(C)C(=O)c3cc(OC)c(OC)cc32)cc1OC`, the TGI was greater than 100 µM in the test on NCI-H460 lung; greater than 100 µM in the test on SK-MEL-2 melanoma; greater than 100 µM in the test with A498 renal; greater than 100 µM in the test on K-562 leukemia; 34.2 µM in the test on HT29 colon; 47.9 µM in the test with COLO 205 colon. Besides, the TGI with RXF 393 renal is 51.6 µM; in the test on HL-60(TB) leukemia, 40.1 µM; in the test on IGROV1 ovarian, greater than 100 µM; with HCC-2998 colon it was greater than 100 µM; in the test on M14 melanoma, greater than 100 µM; with SNB-19 CNS it was greater than 100 µM. Also, the TGI with UO-31 renal is greater than 100 µM; with BT-549 breast, 55.6 µM; in the test on DU-145 prostate, greater than 100 µM; in the test with MDA-MB-435, greater than 100 µM; in the test with PC-3 prostate, greater than 100 µM.

With `COC(=O)[C@@H]1C=C[C@H](OC2OC(COC(C)=O)C(OC(C)=O)C(OC(C)=O)C2OC(C)=O)n2c(=O)c3ccccc3c(=O)n21` (some centres undefined), the TGI amounted to 29 µM with NCI-H460 lung; 27.8 µM in the test with SK-MEL-28 melanoma; 24.5 µM with SK-MEL-2 melanoma; 32.6 µM with A498 renal; 24.5 µM in the test on K-562 leukemia; 60.9 µM in the test on HT29 colon. The TGI worked out at 22.4 µM with COLO 205 colon; 20.1 µM in the test with RXF 393 renal; 30.2 µM in the test with HL-60(TB) leukemia; 33.3 µM in the test on IGROV1 ovarian; 29.6 µM in the test on HCC-2998 colon; 36.9 µM with M14 melanoma. In addition, the TGI with SNB-19 CNS is 47.2 µM; in the test with UO-31 renal it was 27.5 µM; in the test with BT-549 breast, 18.2 µM; with DU-145 prostate, 38.3 µM; in the test with MDA-MB-435, 23 µM; in the test on PC-3 prostate, 25.3 µM.

With `CCCCCCNC(=O)c1cc(CCc2cc(O)ccc2O)ccc1O`, the TGI with NCI-H460 lung turned out to be 27.4 µM; with SK-MEL-28 melanoma, 7.37 µM; in the test with SK-MEL-2 melanoma, 7.4 µM; in the test on A498 renal it was 15.4 µM; in the test on K-562 leukemia it was 8.87 µM; in the test with HT29 colon, 64.7 µM. Also, the TGI in the test with COLO 205 colon was determined as 41.6 µM; with RXF 393 renal, 4.39 µM; in the test on HL-60(TB) leukemia, 4.11 µM; with IGROV1 ovarian, 5.66 µM; in the test with HCC-2998 colon, 9.68 µM; in the test with M14 melanoma, 18.4 µM. Moreover, the TGI in the test with SNB-19 CNS was greater than 50.6 µM; in the test with UO-31 renal, 2.98 µM; in the test on SF-268 CNS, 9.9 µM; in the test on BT-549 breast it was 4.35 µM; with DU-145 prostate, 22.7 µM; with MDA-MB-435, 19.6 µM. The molecule also showed a TGI with PC-3 prostate of 6.49 µM.

Turning to `CN(C)c1ccc(/C=C(\NC(=O)c2ccccc2)C(=O)NCC(=O)O)cc1`, the TGI in the test on NCI-H460 lung, in the test with SK-MEL-28 melanoma, with SK-MEL-2 melanoma, in the test with A498 renal, in the test with K-562 leukemia and in the test with HT29 colon was greater than 100 µM each time. Besides, the TGI in the test with COLO 205 colon, with RXF 393 renal, in the test with HL-60(TB) leukemia, in the test on IGROV1 ovarian, with HCC-2998 colon and in the test on M14 melanoma was greater than 100 µM throughout. For the same molecule, the TGI with SNB-19 CNS, with UO-31 renal, in the test on SF-268 CNS, in the test with BT-549 breast, in the test on DU-145 prostate and in the test on MDA-MB-435 was greater than 100 µM each time. In the test with PC-3 prostate, this molecule yielded a TGI greater than 100 µM.

For `S=C1Cc2c(-c3ccc(Cl)cc3)cc(-c3ccccc3)nc2-c2ccccc2N1`, the TGI was 36.2 µM with NCI-H460 lung; greater than 100 µM with SK-MEL-28 melanoma; 37.6 µM in the test on SK-MEL-2 melanoma; 33 µM in the test on A498 renal; greater than 100 µM in the test with K-562 leukemia; 21.6 µM in the test on HT29 colon. Also, the TGI with COLO 205 colon is 49.5 µM; in the test on RXF 393 renal it was 21.9 µM; in the test on HL-60(TB) leukemia, greater than 100 µM; in the test on IGROV1 ovarian, 14 µM; with HCC-2998 colon it was greater than 100 µM; in the test on M14 melanoma, 49 µM. Also, the TGI in the test with SNB-19 CNS was 21.5 µM; with UO-31 renal, 35.8 µM; in the test on SF-268 CNS it was 34.6 µM; with BT-549 breast it was 35 µM; with DU-145 prostate it was greater than 100 µM; with MDA-MB-435, 46 µM. In addition, the TGI in the test with PC-3 prostate came to 44 µM.

For `COC(=O)CC1C(COC(C)=O)OC(n2cc(C)c(=O)[nH]c2=O)C1OC(C)=O` (centres undefined), the TGI in the test with NCI-H460 lung, with SK-MEL-28 melanoma, in the test on SK-MEL-2 melanoma, with A498 renal, in the test on K-562 leukemia and in the test with HT29 colon was greater than 100 µM each time. In addition, the TGI with COLO 205 colon, in the test with RXF 393 renal, in the test with HL-60(TB) leukemia, with IGROV1 ovarian, with HCC-2998 colon and in the test with M14 melanoma was greater than 100 µM each time. The TGI in the test on SNB-19 CNS, with UO-31 renal, in the test with SF-268 CNS, in the test on BT-549 breast, in the test with DU-145 prostate and in the test with MDA-MB-435 was greater than 100 µM each time. The molecule further yielded a TGI with PC-3 prostate greater than 100 µM.

On to `COc1ccc(NC(=O)CC(=O)N2N=C(c3ccccc3)C(N=Nc3ccc(S(=O)(=O)CCOS(=O)(=O)O)cc3)C2=O)cc1` (centres undefined), for which the TGI in the test on NCI-H460 lung, with SK-MEL-28 melanoma, in the test on SK-MEL-2 melanoma, in the test with A498 renal, in the test on K-562 leukemia and in the test with HT29 colon was greater than 100 µM each time. The TGI in the test on COLO 205 colon, in the test with RXF 393 renal, in the test on HL-60(TB) leukemia, in the test with IGROV1 ovarian, in the test with HCC-2998 colon and in the test with M14 melanoma was greater than 100 µM in each case. In addition, the TGI in the test on SNB-19 CNS, in the test with UO-31 renal, with SF-268 CNS, in the test on BT-549 breast, with DU-145 prostate and in the test with MDA-MB-435 was greater than 100 µM in each case. The molecule also registered a TGI in the test on PC-3 prostate greater than 100 µM.

As for `Cc1ccc(Cc2n[nH]c(=O)n2/N=C\CC/C=N\n2c(Cc3ccc(C)cc3)n[nH]c2=O)cc1`, the TGI is greater than 100 µM in the test with SK-MEL-28 melanoma; 80.5 µM in the test on SK-MEL-2 melanoma; greater than 100 µM in the test on A498 renal; greater than 100 µM in the test with K-562 leukemia; greater than 100 µM in the test on HT29 colon; greater than 100 µM in the test on COLO 205 colon. In addition, the TGI with RXF 393 renal was 65.3 µM; with HL-60(TB) leukemia, greater than 100 µM; in the test with IGROV1 ovarian, greater than 100 µM; in the test with HCC-2998 colon it was greater than 100 µM; in the test with M14 melanoma it was greater than 100 µM; with SNB-19 CNS it was greater than 100 µM. Besides, the TGI in the test on UO-31 renal was greater than 100 µM; in the test on SF-268 CNS, 50.9 µM; in the test on BT-549 breast, greater than 100 µM; in the test with DU-145 prostate, greater than 100 µM; with MDA-MB-435, greater than 100 µM; in the test on PC-3 prostate, greater than 100 µM.

Consider `CC(C)CC[C@H](O)[C@@H](C)[C@H]1[C@@H](OC2OC(C)C(O)C(O)C2O)C[C@H]2[C@@H]3CC=C4C[C@@H](O)CC[C@]4(C)[C@H]3[C@@H](O)C[C@]12C` (some centres undefined), for which the TGI in the test on NCI-H460 lung is greater than 100 µM; with SK-MEL-28 melanoma, 6.47 µM; in the test on SK-MEL-2 melanoma, greater than 100 µM; in the test with A498 renal, greater than 34.9 µM; with K-562 leukemia, 0.422 µM; in the test with HT29 colon, greater than 100 µM. Also, the TGI with COLO 205 colon was 7.17 µM; with RXF 393 renal, greater than 100 µM; in the test with HL-60(TB) leukemia, greater than 100 µM; in the test on IGROV1 ovarian, 40.4 µM; in the test on HCC-2998 colon, greater than 100 µM; in the test on M14 melanoma it was greater than 23.4 µM. The TGI with SNB-19 CNS is greater than 100 µM; with UO-31 renal it was 21.7 µM; in the test on SF-268 CNS it was greater than 100 µM; with BT-549 breast, greater than 100 µM; in the test on DU-145 prostate it was greater than 100 µM; with MDA-MB-435, greater than 100 µM. In the test with PC-3 prostate, this molecule showed a TGI greater than 100 µM.

With `O=C(N/N=C(/COc1ccc(Cl)cc1)N=Cc1cccnc1)c1ccncc1`, the TGI in the test with NCI-H460 lung, with SK-MEL-28 melanoma, with SK-MEL-2 melanoma, in the test with A498 renal, in the test on K-562 leukemia and with HT29 colon was greater than 100 µM each time. Also, the TGI with COLO 205 colon, with RXF 393 renal, with HL-60(TB) leukemia, in the test on IGROV1 ovarian, with HCC-2998 colon and with M14 melanoma was greater than 100 µM in each case. Also, the TGI in the test on SNB-19 CNS, in the test with SF-268 CNS, in the test on BT-549 breast, in the test on DU-145 prostate, in the test on MDA-MB-435 and with PC-3 prostate was greater than 100 µM each time.

Regarding `CC(=O)NNc1nc(C)c(C(/C=C/c2ccc([N+](=O)[O-])cc2)=N/N)s1`, the TGI in the test on NCI-H460 lung, with SK-MEL-28 melanoma, in the test with SK-MEL-2 melanoma, in the test on A498 renal, in the test on K-562 leukemia and in the test on HT29 colon was greater than 100 µM in each case. The TGI in the test on COLO 205 colon, in the test with RXF 393 renal, in the test with HL-60(TB) leukemia, in the test on IGROV1 ovarian, in the test on HCC-2998 colon and in the test on M14 melanoma was greater than 100 µM each time. Also, the TGI with SNB-19 CNS, in the test on UO-31 renal, with SF-268 CNS, in the test with BT-549 breast, in the test on DU-145 prostate and with MDA-MB-435 was greater than 100 µM throughout. In the test on PC-3 prostate, this molecule registered a TGI greater than 100 µM.
